In patent US20040091477A1, “Immunosuppresive compositions” (priority 2003, published 2004):
Marks after values point to notes of the source that are not given here.

What was measured:
[1] = biological target: platelet activating factor receptor (PAFR) (Homo sapiens, UniProt P25105); details: cited from earlier work
[2] = Schussler et al. 1995; cited from earlier work
[3] = system: cAMP-specific phosphodiesterase; details: cited from earlier work
[4] = cited from earlier work
isolated rat hearts [5] = test: Reperfusion-induced arrhythmias (VF, VT) in isolated hearts of orally treated rats, 30 min global ischemia and 2 hours reperfusion; assay type: in vivo; details: control 92%
Protocol: (§1) Male Sprague-Dawley rats were used for all studies. Rats were anesthetized with intraperitoneal pentobarbital sodium (60 mg/kg body weight) and then given intravenous heparin (500 IU/kg). After thoracotomy, the heart was excised and placed in ice cold perfusion buffer. Immediately after preparation, the aorta was cannulated, and the heart was perfused according to Langendorf method for a 5-min washout period at a constant perfusion pressure equivalent to 100 cm of water (10 kPa). The perfusion medium consisted of a modified Krebs-Henseleit bicarbonate buffer: 118 mM NaCl, 4.7 mM KCl, 1.7 mM CaCl2, 25 mM NaHCO3, 0.36 mM KH2PO4, 1.2 mM MgSO4, and 10 mM glucose. The left atrium was cannulated and the Langendorff system was switched to the working mode with a left atrial filling pressure of 17 cm of buffer (1.7 kPa) and aortic afterload pressure of 100 cm (10 kPa) of buffer. Aortic flow was measured by a calibrated rotameter, and coronary flow rate was measured by a timed collection of the coronary perfusate that dripped from the heart. After 10 min aerobic perfusion of the heart, the atrial inflow and aortic outflow lines were clamped at a point close to the origin of the aortic cannula. Reperfusion was initiated by unclamping the atrial inflow and aortic outflow lines. […] An epicardial ECG was recorded by a polygraph throughout the experimental period by two silver electrodes attached directly to the heart. ECGs were analyzed to determine the incidence of ventricular fibrillation (VF) and ventricular tachycardia (VT) and whether VF was non-sustained (spontaneously reverting to regular rhythm) or sustained (persisting through the first 3 min of reperfusion). After 3 min of ventricular fibrillation (sustained VF) hearts were defibrillated and myocardial function was recorded. The heart was considered to be in VF if an irregular undulating baseline was apparent on the ECG. […] In each instance, VT spontaneously switched to sinus rhythm or VF, therefore VT was considered non-sustained. The heart was considered to be in sinus rhythm if normal sinus complexes occurring in a regular rhythm were apparent on the ECG. Before ischemia and during reperfusion, heart rate (HR), coronary flow (CF) and aortic flow (AF) rates were registered. Left ventricular developed pressure (LVDP) which was defined as the difference between left ventricular systolic and end-diastolic pressure, and the first derivative of LVDP (+LVdp/dtmax) were also recorded (Experimetria, UK) by the insertion of a catheter into the left ventricle via the left atrium and mitral valve. […] Cardiac function data (HR, CF, AF, LVDP, and LVdp/dtmax), were expressed as the mean±SEM. One-way analysis of variance was first carried out, to test for any differences between the mean values of all groups. If differences were established, the values of the control, drug-free group were compared with those of the drug treated groups by a two-tailed t-test with the Bonferroni correction (Wallenstein et al., 1980, Circ. Res. 47:1-9). An analogue procedure was followed for distribution of discrete variables such as the incidence of VF and VT. An overall chi-square test for a 2×n table was constructed followed by a sequence of 2×2 chi-square tests to compare individual groups. A change of p<0.05 was considered significant.

isolated rat hearts [6] = test: Cardiac function of isolated working hearts of orally treated rats, 30 min global ischemia followed by reperfusion; assay type: ex vivo
Protocol: as §1

[7] = FK506 1 mg/kg/day oral 10 days, after 30-min reperfusion
[8] = FK506 1 mg/kg/day oral 10 days, after 60-min reperfusion
[9] = FK506 1 mg/kg/day oral 10 days, after 120-min reperfusion
[10] = FK506 5 mg/kg/day oral 10 days, after 30-min reperfusion
[11] = FK506 5 mg/kg/day oral 10 days, after 60-min reperfusion
[12] = FK506 5 mg/kg/day oral 10 days, after 120-min reperfusion
[13] = FK506 10 mg/kg/day oral 10 days, after 30-min reperfusion
[14] = FK506 10 mg/kg/day oral 10 days, after 60-min reperfusion
[15] = FK506 10 mg/kg/day oral 10 days, after 120-min reperfusion
[16] = FK506 20 mg/kg/day oral 10 days, after 30-min reperfusion
[17] = FK506 20 mg/kg/day oral 10 days, after 60-min reperfusion
[18] = FK506 20 mg/kg/day oral 10 days, after 120-min reperfusion
[19] = FK506 40 mg/kg/day oral 10 days, after 30-min reperfusion
[20] = FK506 40 mg/kg/day oral 10 days, after 60-min reperfusion
[21] = FK506 40 mg/kg/day oral 10 days, after 120-min reperfusion

Sequence of platelet activating factor receptor (PAFR) (P25105 whole entry, species assumed): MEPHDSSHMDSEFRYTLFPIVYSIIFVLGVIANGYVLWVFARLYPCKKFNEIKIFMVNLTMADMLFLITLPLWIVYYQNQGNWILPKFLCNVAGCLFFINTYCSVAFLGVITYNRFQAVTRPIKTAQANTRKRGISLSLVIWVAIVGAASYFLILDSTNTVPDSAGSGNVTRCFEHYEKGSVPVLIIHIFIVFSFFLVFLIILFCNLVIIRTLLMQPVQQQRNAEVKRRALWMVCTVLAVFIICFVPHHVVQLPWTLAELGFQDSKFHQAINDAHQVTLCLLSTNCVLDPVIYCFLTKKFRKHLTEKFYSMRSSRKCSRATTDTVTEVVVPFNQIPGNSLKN

Ginkgolide J
PAFR antagonist activity (in words) [1]: PAFR antagonist activity

O=c1cc(-c2ccc(O)c(O)c2)oc2cc(O[C@@H]3O[C@H](CO)[C@@H](O)[C@H](O)[C@H]3O)cc(O)c12 [luteolin-7-glucoside]
cardioprotective effects [2]: 186%

C[C@@H]1C(=O)O[C@@H]2[C@H]1[C@@]13OC4OC(=O)[C@H](O)C45[C@H](C(C)(C)C)[C@@H](O)C(OC1=O)[C@]53[C@H]2O (some centres unmarked) [Ginkgolide M]
PAFR antagonist activity (in words) [1]: PAFR antagonist activity

COc1ccc(-c2cc(=O)c3c(O)cc(O)c(-c4cc(-c5cc(=O)c6c(O)cc(OC)cc6o5)ccc4OC)c3o2)cc1 [Sciadopitysin]
cAMP phosphodiesterase inhibitory activity (in words) [3]: almost inactive

C[C@@H]1C(=O)O[C@H]2C[C@@]34[C@H]5C[C@@H](C(C)(C)C)[C@]36[C@@H](OC(=O)[C@@H]6O)O[C@@]4(C(=O)O5)[C@]21O [Ginkgolide A]
PAFR antagonist activity (in words) [1]: PAFR antagonist

COc1ccc(NC(=S)N2CCc3c(sc4c3C(c3ccccc3Cl)=NCc3nnc(C)n3-4)C2)cc1 [BN 50730]
PAFR antagonistic activity compared to BN52021 ([1]; more potent than BN52021): up to several 10-fold

C=CC[C@@H]1/C=C(\C)C[C@H](C)C[C@H](OC)[C@H]2O[C@@](O)(C(=O)C(=O)N3CCCC[C@H]3C(=O)O[C@H](/C(C)=C/[C@@H]3CC[C@@H](O)[C@H](OC)C3)[C@H](C)[C@@H](O)CC1=O)[C@H](C)C[C@@H]2OC [FK506, tacrolimus]
plasma concentrations ([4]; continuous intravenous infusion, severe acute GVHD): 25 to 35 ng/mL | blood levels ([4]; low doses (0.1 mg/kg or less)): ~10 ng/mL | fraction of treated patients with greater than 1 year graft survival ([4]; low doses (0.1 mg/kg or less)): > 70% | incidence of reperfusion-induced total (irreversible plus reversible) VF (isolated rat hearts [5]; FK506 1 mg/kg/day oral 10 days): 92% | incidence of reperfusion-induced total (irreversible plus reversible) VF (isolated rat hearts [5]; FK506 5 mg/kg/day oral 10 days): 83% | incidence of reperfusion-induced total (irreversible plus reversible) VF (isolated rat hearts [5]; FK506 10 mg/kg/day oral 10 days): 67% | incidence of reperfusion-induced total (irreversible plus reversible) VF (isolated rat hearts [5]; FK506 20 mg/kg/day oral 10 days): 33% | incidence of reperfusion-induced total (irreversible plus reversible) VF (isolated rat hearts [5]; FK506 40 mg/kg/day oral 10 days): 25% | +dP/dtmax (isolated rat hearts [6]; [7]): 422 ± 28 kPa/s | AF (aortic flow) (isolated rat hearts [6]; [7]): 10.6 ± 0.4 mL/min | CF (coronary flow) (isolated rat hearts [6]; [7]): 18.2 ± 1.0 mL/min | HR (heart rate) (isolated rat hearts [6]; [7]): 315 ± 9 beats/min | LVDP (left ventricular developed pressure) (isolated rat hearts [6]; [7]): 10.7 ± 0.6 kPa | +dP/dtmax (isolated rat hearts [6]; [8]): 447 ± 26 kPa/s | CF (coronary flow) (isolated rat hearts [6]; [8]): 16.9 ± 0.9 mL/min | HR (heart rate) (isolated rat hearts [6]; [8]): 306 ± 8 beats/min | LVDP (left ventricular developed pressure) (isolated rat hearts [6]; [8]): 11.9 ± 0.5 kPa | AF (aortic flow) (isolated rat hearts [6]; FK506 1 mg/kg/day oral 10 days, after 60-min reperfusion, 1 mg/kg/day): 10.9 ± 1.8 mL/min | AF (aortic flow) (isolated rat hearts [6]; FK506 1 mg/kg/day oral 10 days, after 60-min reperfusion, listed as FK 506, 1 mg/kg/day): 10.9 ± 0.6 mL/min | +dP/dtmax (isolated rat hearts [6]; [9]): 432 ± 17 kPa/s | AF (aortic flow) (isolated rat hearts [6]; [9]): 10.1 ± 0.6 mL/min | CF (coronary flow) (isolated rat hearts [6]; [9]): 17.5 ± 0.7 mL/min | HR (heart rate) (isolated rat hearts [6]; [9]): 302 ± 9 beats/min | LVDP (left ventricular developed pressure) (isolated rat hearts [6]; [9]): 11.2 ± 0.3 kPa | +dP/dtmax (isolated rat hearts [6]; [10]): 430 ± 34 kPa/s | AF (aortic flow) (isolated rat hearts [6]; [10]): 12.0 ± 0.9 mL/min | CF (coronary flow) (isolated rat hearts [6]; [10]): 18.0 ± 1.1 mL/min | HR (heart rate) (isolated rat hearts [6]; [10]): 298 ± 7 beats/min | LVDP (left ventricular developed pressure) (isolated rat hearts [6]; [10]): 11.0 ± 0.4 kPa | +dP/dtmax (isolated rat hearts [6]; [11]): 463 ± 23 kPa/s | AF (aortic flow) (isolated rat hearts [6]; [11]): 13.3 ± 1.0 mL/min | CF (coronary flow) (isolated rat hearts [6]; [11]): 18.4 ± 0.7 mL/min | HR (heart rate) (isolated rat hearts [6]; [11]): 282 ± 7 beats/min | LVDP (left ventricular developed pressure) (isolated rat hearts [6]; [11]): 12.0 ± 0.7 kPa | +dP/dtmax (isolated rat hearts [6]; [12]): 451 ± 32 kPa/s | AF (aortic flow) (isolated rat hearts [6]; [12]): 11.2 ± 0.8 mL/min | CF (coronary flow) (isolated rat hearts [6]; [12]): 18.1 ± 0.8 mL/min | HR (heart rate) (isolated rat hearts [6]; [12]): 279 ± 8 beats/min | LVDP (left ventricular developed pressure) (isolated rat hearts [6]; [12]): 11.5 ± 0.4 kPa | +dP/dtmax (isolated rat hearts [6]; [13]): 478 ± 44^a kPa/s | AF (aortic flow) (isolated rat hearts [6]; [13]): 12.0 ± 1.2 mL/min | CF (coronary flow) (isolated rat hearts [6]; [13]): 20.0 ± 1.4 mL/min | HR (heart rate) (isolated rat hearts [6]; [13]): 308 ± 8 beats/min | LVDP (left ventricular developed pressure) (isolated rat hearts [6]; [13]): 11.5 ± 0.5 kPa | +dP/dtmax (isolated rat hearts [6]; [14]): 472 ± 32 kPa/s | AF (aortic flow) (isolated rat hearts [6]; [14]): 13.3 ± 1.2 mL/min | CF (coronary flow) (isolated rat hearts [6]; [14]): 19.6 ± 1.2 mL/min | HR (heart rate) (isolated rat hearts [6]; [14]): 310 ± 9 beats/min | LVDP (left ventricular developed pressure) (isolated rat hearts [6]; [14]): 12.3 ± 0.7 kPa | +dP/dtmax (isolated rat hearts [6]; [15]): 463 ± 29 kPa/s | AF (aortic flow) (isolated rat hearts [6]; [15]): 11.4 ± 0.7 mL/min | CF (coronary flow) (isolated rat hearts [6]; [15]): 18.8 ± 0.7 mL/min | HR (heart rate) (isolated rat hearts [6]; [15]): 307 ± 7 beats/min | LVDP (left ventricular developed pressure) (isolated rat hearts [6]; [15]): 11.7 ± 0.6 kPa | +dP/dtmax (isolated rat hearts [6]; [16]): 536 ± 28^a kPa/s | AF (aortic flow) (isolated rat hearts [6]; [16]): 17.4 ± 0.8^a ml/min | CF (coronary flow) (isolated rat hearts [6]; [16]): 23.1 ± 1.1^a ml/min | HR (heart rate) (isolated rat hearts [6]; [16]): 298 ± 9 beats/min | LVDP (left ventricular developed pressure) (isolated rat hearts [6]; [16]): 13.5 ± 0.6^a kPa | +dP/dtmax (isolated rat hearts [6]; [17]): 544 ± 31^a kPa/s | AF (aortic flow) (isolated rat hearts [6]; [17]): 19.8 ± 1.5^a ml/min | CF (coronary flow) (isolated rat hearts [6]; [17]): 22.0 ± 1.1^a ml/min | HR (heart rate) (isolated rat hearts [6]; [17]): 297 ± 8 beats/min | LVDP (left ventricular developed pressure) (isolated rat hearts [6]; [17]): 14.1 ± 0.6^a kPa | +dP/dtmax (isolated rat hearts [6]; [18]): 519 ± 26^a kPa/s | AF (aortic flow) (isolated rat hearts [6]; [18]): 17.3 ± 1.1^a ml/min | CF (coronary flow) (isolated rat hearts [6]; [18]): 21.2 ± 1.1^a ml/min | HR (heart rate) (isolated rat hearts [6]; [18]): 295 ± 6 beats/min | LVDP (left ventricular developed pressure) (isolated rat hearts [6]; [18]): 13.2 ± 0.5^a kPa | +dP/dtmax (isolated rat hearts [6]; [19]): 557 ± 31^a kPa/s | AF (aortic flow) (isolated rat hearts [6]; [19]): 20.6 ± 1.3^a ml/min | CF (coronary flow) (isolated rat hearts [6]; [19]): 24.7 ± 1.5^a ml/min | HR (heart rate) (isolated rat hearts [6]; [19]): 291 ± 7 beats/min | LVDP (left ventricular developed pressure) (isolated rat hearts [6]; [19]): 14.1 ± 0.6^a kPa | +dP/dtmax (isolated rat hearts [6]; [20]): 594 ± 26^a kPa/s | AF (aortic flow) (isolated rat hearts [6]; [20]): 22.9 ± 2.1^a ml/min | CF (coronary flow) (isolated rat hearts [6]; [20]): 23.5 ± 0.8^a ml/min | HR (heart rate) (isolated rat hearts [6]; [20]): 286 ± 9 beats/min | LVDP (left ventricular developed pressure) (isolated rat hearts [6]; [20]): 15.3 ± 0.6^a kPa | +dP/dtmax (isolated rat hearts [6]; [21]): 568 ± 33^a kPa/s | AF (aortic flow) (isolated rat hearts [6]; [21]): 20.0 ± 1.8^a ml/min | CF (coronary flow) (isolated rat hearts [6]; [21]): 22.8 ± 1.8^a ml/min | HR (heart rate) (isolated rat hearts [6]; [21]): 289 ± 8 beats/min | LVDP (left ventricular developed pressure) (isolated rat hearts [6]; [21]): 14.6 ± 0.6^a kPa | change of preischemic HR, CF, AF, LVDP and +LVdP/dtmax (in words) (isolated rat hearts [6]; FK506 treatment, before ischemia, versus drug-free group): No significant changes

ginkgolide C
PAFR antagonist activity (in words) [1]: PAFR antagonist
